Measurements as given in ChEMBL document CHEMBL1926599, “Bis(oxyphenylene)benzimidazoles: a novel class of anti-Plasmodium falciparum agents” (Bioorg Med Chem, 2011).
The source made the active and inactive calls. The rule behind the calls is not given here.

How the values were obtained:
Trypanosoma cruzi = assay: Antitrypanosomal activity against trypomastigote form of Trypanosoma cruzi Tulahuen C2C4 expressing Lac Z infected in rat L6 cells after 96 hrs by spectrophotometry; assay type: functional, organism-based; settings: Tulahuen C2C4, L6, 96 h
[1] = Selectivity ratio of IC50 for rat L6 cells to IC50 for Plasmodium falciparum K1; assay type: ADME, cell-based; settings: read-out: Ratio IC50
[2] = Inhibition of beta-hematin formation in aqueous acetate buffer; assay type: functional
Entamoeba histolytica = assay: Antiprotozoal activity against Entamoeba histolytica Hk-9 trophozoites after 70 hrs by resazurin-based spectrophotometric assay; assay type: functional, organism-based; settings: Hk-9, 70 h
Plasmodium falciparum = assay: Antiplasmodial activity against chloroquine and pyrimethamine-resistant Plasmodium falciparum K1 assessed as inhibition of [3H]hypoxanthine incorporation incubated for 48 hrs prior to [3H] hypoxanthine addition measured after 24 hrs by liquid scintillation counting; assay type: functional, organism-based
L6 = assay: Cytotoxicity against rat L6 cells after 72 hrs by resazurin-based spectrophotometric assay; assay type: cell-based; settings: L6, 72 h
Leishmania donovani = assay: Antileishmanial activity against Leishmania donovani MHOM-ET-67/L82 after 72 hrs by resazurin-based spectrophotometric assay; assay type: functional, organism-based; settings: MHOM-ET-67/L82, 72 h
[3] = tested on: Trypanosoma brucei rhodesiense; assay: Antitrypanosomal activity against bloodstream form of Trypanosoma brucei rhodesiense STIB 900 after 70 hrs by resazurin-based spectrophotometric assay; assay type: functional, organism-based; settings: STIB 900, 70 h
Giardia intestinalis = assay: Antiprotozoal activity against Giardia intestinalis G1 after 70 hrs by resazurin-based spectrophotometric assay; assay type: functional, organism-based; settings: Giardia duodenalis, G1, 70 h
[4] = Selectivity ratio of IC50 for rat L6 cells to IC50 for Leishmania donovani MHOM-ET-67/L82; assay type: ADME, cell-based; settings: read-out: Ratio IC50
[5] = Selectivity ratio of IC50 for rat L6 cells to IC50 for Giardia intestinalis G1; assay type: ADME, cell-based; settings: read-out: Ratio IC50
[6] = Selectivity ratio of IC50 for rat L6 cells to IC50 for bloodstream form of Trypanosoma brucei rhodesiense STIB 900; assay type: ADME, cell-based; settings: read-out: Ratio IC50
[7] = Selectivity ratio of IC50 for rat L6 cells to IC50 for Entamoeba histolytica Hk-9; assay type: ADME, cell-based; settings: read-out: Ratio IC50
[8] = tested on: Trypanosoma brucei rhodesiense; assay: Antitrypanosomal activity against bloodstream form of Trypanosoma brucei rhodesiense STIB 900 after 70 hrs by resazurin-based spectrophotometric assay relative to melarsoprol; assay type: functional

SMILES | IC50 (Trypanosoma cruzi) | selectivity ratio [1] | inhibition [2] | IC50 (Entamoeba histolytica) | IC50 (Plasmodium falciparum) | IC50 (L6) | IC50 (Leishmania donovani) | IC50 [3] | IC50 (Giardia intestinalis) | selectivity ratio [4] | selectivity ratio [5] | selectivity ratio [6] | selectivity ratio [7] | Ratio IC50 [8]
O=C(Cn1ccnc1[N+](=O)[O-])NCc1ccccc1 [BENZNIDAZOLE] | 1.13 µM |  |  |  |  |  |  |  |  |  |  |  |  | 
c1cc(OCCCCOc2cccc(-c3nc4ccccc4[nH]3)c2)cc(-c2nc3ccccc3[nH]2)c1 | 23.9 µM | 92 | Active | 211 µM | 230 nM | 21.2 µM | 9.99 µM | 18500 nM | 36 µM |  |  |  |  | 
c1cc(OCCCCCOc2cccc(-c3nc4ccccc4[nH]3)c2)cc(-c2nc3ccccc3[nH]2)c1 | 1.7 µM | 10 |  | 27.8 µM | 340 nM | 3.56 µM | 1.19 µM | 1330 nM | 18.5 µM |  |  |  |  | 
c1cc(OCCCCCCCCCCOc2cccc(-c3nc4ccccc4[nH]3)c2)cc(-c2nc3ccccc3[nH]2)c1 | 83.2 µM | 202 |  | 22.2 µM | 360 nM | 72.2 µM | 13.3 µM | 2080 nM | 172 µM |  |  |  |  | 
c1ccc2[nH]c(-c3ccc(OCCCCCCOc4ccc(-c5nc6ccccc6[nH]5)cc4)cc3)nc2c1 | 6.05 µM | 40 | Active | > 199 µM | 240 nM | 9.61 µM | 6.59 µM | 7220 nM | 3.58 µM |  |  |  |  | 
c1cc(OCc2ccc(COc3cccc(-c4nc5ccccc5[nH]4)c3)cc2)cc(-c2nc3ccccc3[nH]2)c1 | 10.9 µM | 54 |  |  | 190 nM | 10.4 µM | 8.44 µM | 24000 nM |  |  |  |  |  | 
c1ccc2[nH]c(-c3ccc(OCCCCCCCCCCOc4ccc(-c5nc6ccccc6[nH]5)cc4)cc3)nc2c1 | 88.5 µM | 257 |  | 19.3 µM | 180 nM | 46 µM | 124 µM | 9340 nM | 22.1 µM |  |  |  |  | 
c1cc(COc2ccc(-c3nc4ccccc4[nH]3)cc2)cc(COc2ccc(-c3nc4ccccc4[nH]3)cc2)c1 | 113 µM | > 450 |  |  | 380 nM | > 172 µM | 1.05 µM | 3560 nM |  | > 164 |  |  |  | 
c1cc(OCCCCCCOc2cccc(-c3nc4ccccc4[nH]3)c2)cc(-c2nc3ccccc3[nH]2)c1 | 3.88 µM | 29 |  | 73.7 µM | 280 nM | 7.98 µM | 2.57 µM | 2370 nM | 17.7 µM |  |  |  |  | 
c1ccc2[nH]c(-c3ccc(OCOc4ccc(-c5nc6ccccc6[nH]5)cc4)cc3)nc2c1 | 11.3 µM | 21 |  |  | 690 nM | 14.4 µM | 16.5 µM | 2130 nM |  |  |  |  |  | 
c1ccc(COc2ccc(-c3nc4ccccc4[nH]3)cc2)c(COc2ccc(-c3nc4ccccc4[nH]3)cc2)c1 | 6.07 µM | 17 |  |  | 340 nM | 5.89 µM | 2.33 µM | 1320 nM |  |  |  |  |  | 
c1ccc2[nH]c(-c3ccc(OCCOc4ccc(-c5nc6ccccc6[nH]5)cc4)cc3)nc2c1 | 133 µM | 13 |  | 191 µM | 2010 nM | 25.4 µM | > 202 µM | 154000 nM | 124 µM |  |  |  |  | 
c1ccc2[nH]c(-c3ccc(OCCCCCOc4ccc(-c5nc6ccccc6[nH]5)cc4)cc3)nc2c1 | 2.42 µM | 26 | Active | 22.7 µM | 270 nM | 6.82 µM | 0.8 µM | 1020 nM | 0.82 µM |  |  |  |  | 
c1cc(OCCOc2cccc(-c3nc4ccccc4[nH]3)c2)cc(-c2nc3ccccc3[nH]2)c1 | 4.68 µM | 2 | Active | 84 µM | 2580 nM | 5.04 µM | 24.1 µM | 16600 nM | 11.7 µM |  |  |  |  | 
c1ccc2[nH]c(-c3ccc(OCc4ccc(COc5ccc(-c6nc7ccccc7[nH]6)cc5)cc4)cc3)nc2c1 | 26.3 µM | 70 |  |  | 230 nM | 16 µM | 0.8 µM | 2120 nM |  |  |  |  |  | 
c1cc(COc2cccc(-c3nc4ccccc4[nH]3)c2)cc(COc2cccc(-c3nc4ccccc4[nH]3)c2)c1 | 5.99 µM | 198 |  |  | 400 nM | 79.6 µM | 4.63 µM | 3600 nM |  |  |  |  |  | 
c1cc(OCOc2cccc(-c3nc4ccccc4[nH]3)c2)cc(-c2nc3ccccc3[nH]2)c1 | 11.6 µM | 11 |  |  | 1690 nM | 18.9 µM | 6.19 µM | 14200 nM |  |  |  |  |  | 
c1ccc2[nH]c(-c3ccc(OCCCCCCCOc4ccc(-c5nc6ccccc6[nH]5)cc4)cc3)nc2c1 | 14.8 µM | 208 | Active | 21.7 µM | 230 nM | 48.4 µM | 1.53 µM | 1080 nM | 1.34 µM |  |  |  |  | 
c1ccc2[nH]c(-c3ccc(OCCCCCCCCCOc4ccc(-c5nc6ccccc6[nH]5)cc4)cc3)nc2c1 | > 165 µM | 344 |  | 30.7 µM | 290 nM | 101 µM | 5.93 µM | 810 nM | 0.83 µM |  | 123 | 123 |  | 
c1cc(OCc2ccccc2COc2cccc(-c3nc4ccccc4[nH]3)c2)cc(-c2nc3ccccc3[nH]2)c1 | 2.53 µM | 20 |  |  | 340 nM | 7.02 µM | 3 µM | 2660 nM |  |  |  |  |  | 
c1ccc2[nH]c(-c3ccc(OCCCOc4ccc(-c5nc6ccccc6[nH]5)cc4)cc3)nc2c1 | 3.91 µM | 13 | Active | 3.37 µM | 280 nM | 3.56 µM | 2.67 µM | 1500 nM | 0.74 µM |  |  |  | 1 | 
c1cc(OCCCOc2cccc(-c3nc4ccccc4[nH]3)c2)cc(-c2nc3ccccc3[nH]2)c1 | 8.92 µM | 4 | Active | 78.3 µM | 2410 nM | 9.82 µM | 3.91 µM | 8010 nM | 56.1 µM |  |  |  |  | 
c1cc(OCCCCCCCOc2cccc(-c3nc4ccccc4[nH]3)c2)cc(-c2nc3ccccc3[nH]2)c1 | 1.82 µM | 291 | Active | 56.7 µM | 410 nM | 118 µM | 2.69 µM | 1370 nM | 25.8 µM |  |  |  |  | 
Cc1ncc([N+](=O)[O-])n1CCO [METRONIDAZOLE] |  |  |  | 5.82 µM |  |  |  |  | 1.56 µM |  |  |  |  | 
c1ccc2[nH]c(-c3ccc(OCCCCCCCCOc4ccc(-c5nc6ccccc6[nH]5)cc4)cc3)nc2c1 | 57 µM | 67 |  | 65.8 µM | 300 nM | 19.8 µM | 98.2 µM | 39100 nM | 10.4 µM |  |  |  |  | 100
c1cc(OCCCCCCCCOc2cccc(-c3nc4ccccc4[nH]3)c2)cc(-c2nc3ccccc3[nH]2)c1 | 4.28 µM | 29 |  | 23.5 µM | 450 nM | 13.1 µM | 5.9 µM | 4500 nM | 52.4 µM |  |  |  |  | 
c1cc(OCCCCCCCCCOc2cccc(-c3nc4ccccc4[nH]3)c2)cc(-c2nc3ccccc3[nH]2)c1 | 4.98 µM | 39 |  | 46.2 µM | 570 nM | 21.9 µM | 6.59 µM | 2370 nM | 45.5 µM |  |  |  |  | 
c1ccc2[nH]c(-c3ccc(OCCCCOc4ccc(-c5nc6ccccc6[nH]5)cc4)cc3)nc2c1 | 5.75 µM | 18 | Active | 8.13 µM | 440 nM | 7.84 µM | 3.25 µM | 2760 nM | 17.9 µM |  |  |  | 1 | 
